Reference: PubChem BioAssay AID1552 (Sanford-Burnham Center for Chemical Genomics, 2009)
Active and inactive are the calls of the source. How the calls were made is not given here.

Biological target: Ubiquitin-conjugating enzyme E2 N (Homo sapiens) (UniProt P61088)
Experiment: UBE2N binders by NMR, biophysical, purified protein (AID 1552)
Details: NMR binding to purified UBE2N

Sequence of Ubiquitin-conjugating enzyme E2 N (Homo sapiens) (P61088 whole entry, looked up): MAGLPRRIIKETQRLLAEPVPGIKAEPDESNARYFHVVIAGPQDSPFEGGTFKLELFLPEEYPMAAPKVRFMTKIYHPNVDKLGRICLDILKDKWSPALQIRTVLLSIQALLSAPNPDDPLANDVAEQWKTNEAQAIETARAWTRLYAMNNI

| Structure (SMILES) | Kd |
| --- | --- |
| CC1CCCN(C/C(O)=C(\C#N)c2nc3ccccc3[nH]2)C1 (stereo unspecified) | > 4 mM (inactive) |
| Cn1ccnc1C(O)c1ccccc1 (stereo unspecified) | > 4 mM (inactive) |
| COc1c2c(cc3cc[n+](C)cc13)OCO2 | > 4 mM (inactive) |
| C[C@@H]1CC[C@@]23CCC4(C)[C@@](C=CC5[C@@]6(C)CCC(=O)C(C)(C)C6CC[C@]54C)(OC2=O)C3[C@H]1C (stereo partly specified) | > 4 mM (inactive) |
| CCOC(=O)Cn1cnc2c1c(=O)[nH]c(=O)n2C | > 4 mM (inactive) |
| COc1cc2ccc(=O)oc2c(OC)c1OC | > 4 mM (inactive) |
| OCC12COC3c4ccccc4C(OC1)N32 (stereo unspecified) | > 4 mM (inactive) |
| Cc1c(N=CN2CCOCC2)c(=O)n(C)c(=O)n1C | > 4 mM (inactive) |
| Oc1ccc(C(=S)N2CCOCC2)cc1 | > 4 mM (inactive) |
| CC(=O)Nc1ccc(NC(=O)N2CCOCC2)cc1 | > 4 mM (inactive) |
| Cc1nc2ccccc2c(=O)n1/N=C/c1ccco1 | > 4 mM (inactive) |
| CN1CCN(C(=O)Nc2cccc3ccccc23)CC1 | > 4 mM (inactive) |
| Nc1cccc(OC(F)(F)F)c1 | > 4 mM (inactive) |
| CC(=O)Oc1ccc2c(c1OC(C)=O)OCC1(O)Cc3c(cc(OC(C)=O)c(OC(C)=O)c3OC(C)=O)C21 (stereo unspecified) | > 4 mM (inactive) |
| CC12CN([N+](=O)[O-])C3(C(N)=O)CC1CCC23C (stereo unspecified) | > 4 mM (inactive) |
| O=[n+]1c(CO)c(CO)n([O-])c2ccccc21 | > 4 mM (inactive) |
| Cn1nnc2cc(CN)ccc21 | > 4 mM (inactive) |
| Cc1oc(-c2ccccc2)nc1CC(=O)O | > 4 mM (inactive) |
| CCCCN1C(=O)N(C)C2NC(=O)NC21 (stereo unspecified) | > 4 mM (inactive) |
| Cn1c(CO)nc2cc(N)ccc21 | > 4 mM (inactive) |
| O=C1N=C(N2CCOCC2)S/C1=C\c1cccnc1 | > 4 mM (inactive) |
| CS(=O)(=O)N1CCN(C(=O)Cc2cccs2)CC1 | > 4 mM (inactive) |
| O=C(O)c1cc(=O)[nH]c2ccccc12 | > 4 mM (inactive) |
| NC(=O)CSc1nc2[nH]ncc2c(=O)[nH]1 | > 4 mM (inactive) |

| Structure (SMILES) | Kd |
| --- | --- |
| CC(C)(C(N)=O)/[N+]([O-])=C\c1ccccc1 | > 4 mM (inactive) |
| COC(=O)C(O)[C@@H]1C2(C)C(=O)[C@@H](CC3=C4CC(=O)O[C@@H](c5ccoc5)[C@]4(C)CCC32)[C@H](OC(C)=O)C1(C)C (stereo partly specified) | > 4 mM (inactive) |
| Nc1n[nH]c(=S)n1-c1ccccc1 | > 4 mM (inactive) |
| O=C(Cn1cncn1)c1ccc(F)c(F)c1 | > 4 mM (inactive) |
| Cc1ncc(CC(=O)O)s1 | > 4 mM (inactive) |
| COc1ccc(-c2nc(N)n(C(C)=O)n2)cc1 | > 4 mM (inactive) |
| Cn1c(SCC(=O)NCCO)nc2ccccc2c1=O | > 4 mM (inactive) |
| COC(=O)Cc1cc(=O)n(-c2ccccc2)[nH]1 | > 4 mM (inactive) |
| COc1ccc2ccc(=O)oc2c1CC=C(C)C | > 4 mM (inactive) |
| C=C1C2CC[C@@]3(C)[C@H](c4ccoc4)OC(=O)C[C@]13O[C@H]1CC(O)C(C)(C)C(CC(=O)OC)[C@@]21C (stereo partly specified) | > 4 mM (inactive) |
| O=C(NCC1CCCCC1)c1ccco1 | > 4 mM (inactive) |
| COc1ccccc1N1C(=N)SCC1=O | > 4 mM (inactive) |
| COc1ccccc1NC(=O)c1snnc1C | > 4 mM (inactive) |
| COc1ccccc1-c1nc(=S)[nH][nH]1 | > 4 mM (inactive) |
| O=c1cc(-c2ccccc2)oc2cc(O)cc(O)c12 | > 4 mM (inactive) |
| O=C(Nc1ccon1)c1cccc(Cl)c1 | > 4 mM (inactive) |
| Cc1c(C(=O)Nc2cnccn2)oc2ccccc12 | > 4 mM (inactive) |
| Nc1ccc(F)cc1F | > 4 mM (inactive) |
| NC(=O)c1cn(-c2ccccc2)nc1-c1cccnc1 | > 4 mM (inactive) |
| Nc1cccc(S(=O)(=O)N2CCOCC2)c1 | > 4 mM (inactive) |
| COC(=O)C1CCc2ccccc2N1 (stereo unspecified) | > 4 mM (inactive) |
| Cc1ccc(C(=O)N2CC(=O)NC(=O)C2)cc1 | > 4 mM (inactive) |
| Nc1ncnc2c1ncn2CCOc1ccccc1 | > 4 mM (inactive) |
| O=C1C2C3C=CC(C3)C2C(=O)N1CCO (stereo unspecified) | > 4 mM (inactive) |

| Structure (SMILES) | Kd |
| --- | --- |
| CC(C)=CCCC1(C)C=Cc2c(O)c3c(c(CC=C(C)C)c2O1)OC12C(=CC4CC1C(C)(C)OC2(C/C=C(/C)C(=O)O)C4O)C3=O (stereo unspecified) | > 4 mM (inactive) |
| Cc1noc(C)c1C(=O)Nc1sc(C)c(C)c1C#N | > 4 mM (inactive) |
| OC1CCC(C(F)(F)F)CC1 (stereo unspecified) | > 4 mM (inactive) |
| CC(=O)Nc1ccc(-c2ccc3nncn3n2)cc1 | > 4 mM (inactive) |
| O=C(CSC1=NCCS1)N1CCc2ccccc21 | > 4 mM (inactive) |
| CC(C)[C@@H]1CC[C@@H](C)CC1=O | > 4 mM (inactive) |
| ON=c1ccc2nc3ccccc3nc2cc1 | > 4 mM (inactive) |
| O=C1CSC(=O)N1CN1CCCC1 | > 4 mM (inactive) |
| O=C1C=CC(=O)N1c1ccccc1O | > 4 mM (inactive) |
| Cc1ccccc1C(=O)Nc1cccc(N)c1 | > 4 mM (inactive) |
| O=C(CSc1ncccn1)NCc1ccco1 | > 4 mM (inactive) |
| O=C1c2ccccc2C(=O)N1OCc1ccccc1 | > 4 mM (inactive) |
| O=c1cc(-c2ccccc2)oc2cc(O)c(O)c(O)c12 | > 4 mM (inactive) |
| COc1ccccc1NS(=O)(=O)c1c[nH]c(=O)[nH]c1=O | > 4 mM (inactive) |
| Cc1nn2c(nc1=O)SCC2(O)c1ccccc1 (stereo unspecified) | > 4 mM (inactive) |
| COc1ccccc1-c1nc(-c2ccc(C)nc2OC)no1 | > 4 mM (inactive) |
| CC(=O)OCC(=O)[C@@]1(O)CCC2C3CC[C@@H]4C[C@H](O)CC[C@]4(C)C3C(=O)C[C@@]21C (stereo partly specified) | > 4 mM (inactive) |
| Cn1cc(Cl)c(C(=O)Nc2ccc(F)cc2F)n1 | > 4 mM (inactive) |
| N=C1/C(=C\c2ccco2)C(=O)N=C2SC=NN12 | > 4 mM (inactive) |
| COc1c2c(cc3c1OCO3)CCN(C)C2 | > 4 mM (inactive) |
| Cc1cc(NC(=O)Cc2cccs2)no1 | > 4 mM (inactive) |
| C[C@@H]1CC[C@]2(C(=O)O)CC[C@]3(C)C(=CCC4[C@@]5(C)CC[C@H](O)C(C)(C)C5CC[C@]43C)C2[C@H]1C (stereo partly specified) | > 4 mM (inactive) |
| CCN1CC2(C)CC[C@H](OC)[C@]34C2[C@H](O)C2(OCO[C@@]25C[C@H](OC)[C@H]2C[C@]3(O)C5[C@H]2O)C14 | > 4 mM (inactive) |
| NC(=O)c1ccsc1N | > 4 mM (inactive) |

| Structure (SMILES) | Kd |
| --- | --- |
| O=C1c2ccccc2C(=O)c2c1ccc(O)c2O | > 4 mM (inactive) |
| Cc1cc(C)c(C(N)=O)c(=S)[nH]1 | > 4 mM (inactive) |
| CC1(O)CC2C(CC1O)C2(C)C (stereo unspecified) | > 4 mM (inactive) |
| O=S1(=O)C=C(Nc2ccccc2)CC1 | > 4 mM (inactive) |
| CO[C@H]1[C@@H](O)[C@@H](C)O[C@H](O[C@H]2CCC3(C)C4CCC5(C)[C@@H](C6=CC(=O)OC6)CC[C@]5(O)[C@@H]4CC[C@]3(O)C2)[C@@H]1O (stereo partly specified) | > 4 mM (inactive) |
| COc1cc(/C=C/C(=O)/C=C(O)/C=C/c2ccc(O)c(OC)c2)ccc1O | > 4 mM (inactive) |
| CC(=O)O[C@@H]1CC2C(C)(C)C(=O)C=C[C@]2(C)C2CC[C@]3(C)C(=CC(=O)O[C@H]3c3ccoc3)[C@@]21C (stereo partly specified) | > 4 mM (inactive) |
| CCOC(=O)c1c(C)nc2ccccn12 | > 4 mM (inactive) |
| CNC(=S)N1CCN=C1Nc1nc(C)cc(C)n1 | > 4 mM (inactive) |
| COc1cc2c(cc1OC)C1=C(C#N)CCC(=O)N1CC2 | > 4 mM (inactive) |
| Cc1nc(N)sc1C(=O)Nc1nccs1 | > 4 mM (inactive) |
| Cc1n[nH]c(=S)n1-c1ccc(C(=O)O)cc1 | > 4 mM (inactive) |
| CSc1ccccc1NC(=O)c1ccncc1 | > 4 mM (inactive) |
| O=C1C2CC=C(Cl)CC2C(=O)N1c1ccccc1O (stereo unspecified) | > 4 mM (inactive) |
| C[C@@H]1O[C@@H](O[C@H]2CC[C@]3(C=O)C4CC[C@]5(C)[C@@H](C6=CC(=O)OC6)CC[C@]5(O)C4CC[C@]3(O)C2)[C@H](O)[C@H](O)[C@H]1O (stereo partly specified) | > 4 mM (inactive) |
| Cn1ncc(N2CCOCC2)c(Cl)c1=O | > 4 mM (inactive) |
| O=C(O)c1ccc2ncccc2c1 | > 4 mM (inactive) |
| CN1CCN(c2cc(=O)n(C)c(=O)[nH]2)CC1 | > 4 mM (inactive) |
| c1ccc2c(c1)[nH]c1cnccc12 | > 4 mM (inactive) |
| O=C(Cn1cnc2ccccc2c1=O)N1CCOCC1 | > 4 mM (inactive) |
| Cc1ccc2c(c1)=C(c1sc(N)nc1O)C(=O)N=2 | > 4 mM (inactive) |
| CCOC(=O)C1CCN(Cc2ccccc2)CC1=O (stereo unspecified) | > 4 mM (inactive) |
| O=C(NC(=S)NCc1cccnc1)c1ccco1 | > 4 mM (inactive) |
| CC(=O)N1CCc2ccccc2C1CC(=O)O (stereo unspecified) | > 4 mM (inactive) |

| Structure (SMILES) | Kd |
| --- | --- |
| Cc1nc(-c2ccccc2)sc1CO | > 4 mM (inactive) |
| COc1cc(O)c2c(c1)C(=O)c1cc(C)cc(O)c1C2=O | > 4 mM (inactive) |
| C/C=C/C=N/NC(=O)c1ccc(=O)n(C)c1 | > 4 mM (inactive) |
| Nc1cc(F)nc(F)n1 | > 4 mM (inactive) |
| Cc1cc(C)nc(/N=C(/N)N2CCN(C)CC2)n1 | > 4 mM (inactive) |
| Cc1nc2nc(Cc3ccccc3)nn2c(C)c1Cl | > 4 mM (inactive) |
| NC1Cc2ccccc2C1 | > 4 mM (inactive) |
| OCCOc1ccc(C2=NCCO2)cc1 | > 4 mM (inactive) |
| Nc1nc(-c2ccccc2)ns1 | > 4 mM (inactive) |
| Cc1ccc(CN2CCN(C(=O)C3CCC3)CC2)cc1 | > 4 mM (inactive) |
| c1ccc(SCc2nc(-c3ccccn3)no2)cc1 | > 4 mM (inactive) |
| CC(=O)c1cc(CN2C(=O)c3ccccc3C2=O)cs1 | > 4 mM (inactive) |
| NCc1ccc2occc2c1 | > 4 mM (inactive) |
| NC(=O)Cn1cnc2c(cnn2-c2ccccc2)c1=O | > 4 mM (inactive) |
| COc1cccc(/C=N/N=C2/NC(=O)CS2)c1 | > 4 mM (inactive) |
| Clc1ccccc1OCc1nc(-c2ccncc2)no1 | > 4 mM (inactive) |
| Nc1nc(-c2ccc(O)cc2)cs1 | > 4 mM (inactive) |
| NCc1ccc(-c2cccs2)s1 | > 4 mM (inactive) |
| Cc1ccc(CO)o1 | > 4 mM (inactive) |
| O=C(O)C1CC(=O)N(Cc2ccco2)C1 (stereo unspecified) | > 4 mM (inactive) |
